Molecular target: T1, Glucocorticoid receptor (Homo sapiens, UniProt P04150)
T1 sequence (P04150 whole entry): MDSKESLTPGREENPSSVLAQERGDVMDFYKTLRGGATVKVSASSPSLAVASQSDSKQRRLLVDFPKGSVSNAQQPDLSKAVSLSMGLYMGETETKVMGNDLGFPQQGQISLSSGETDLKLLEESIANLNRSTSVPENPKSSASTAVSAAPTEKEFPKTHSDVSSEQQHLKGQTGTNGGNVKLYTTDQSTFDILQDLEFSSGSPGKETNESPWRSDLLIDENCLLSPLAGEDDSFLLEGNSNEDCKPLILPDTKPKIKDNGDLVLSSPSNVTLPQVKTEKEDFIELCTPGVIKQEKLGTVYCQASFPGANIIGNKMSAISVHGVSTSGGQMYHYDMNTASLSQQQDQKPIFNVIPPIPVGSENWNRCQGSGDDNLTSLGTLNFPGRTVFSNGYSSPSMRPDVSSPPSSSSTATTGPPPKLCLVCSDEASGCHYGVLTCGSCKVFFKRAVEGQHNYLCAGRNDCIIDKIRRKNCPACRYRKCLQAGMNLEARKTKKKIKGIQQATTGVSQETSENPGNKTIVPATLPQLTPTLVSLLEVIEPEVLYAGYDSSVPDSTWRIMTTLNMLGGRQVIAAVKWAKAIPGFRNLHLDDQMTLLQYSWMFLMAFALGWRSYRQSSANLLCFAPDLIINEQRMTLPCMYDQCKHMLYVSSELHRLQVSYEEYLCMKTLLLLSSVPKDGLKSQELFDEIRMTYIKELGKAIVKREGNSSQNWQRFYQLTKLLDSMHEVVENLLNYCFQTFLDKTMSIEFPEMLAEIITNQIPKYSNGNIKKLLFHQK
Assay: Binding affinity to glucocorticoid receptor by Fluorescence polarization

Row | Structure (SMILES) | IC50 [nM]
1 | COc1ccc(F)cc1C(C)(C)C[C@](O)(Cc1ccc(Cl)cc1)C(F)(F)F | 2000
2 | COc1ccc(F)cc1C(C)(C)C[C@@](O)(Cc1ccc(Cl)cc1)C(F)(F)F | 99

— ChEMBL document CHEMBL1149439, “A concise asymmetric route for the synthesis of a novel class of glucocorticoid mimetics containing a trifluoromethyl-substituted alcohol” (Bioorg Med Chem Lett, 2006)
